What was measured:
T. cruzi [1] = experiment: T. cruzi mouse model, in-vivo
Excerpt: (§1) In-vitro and in-vivo models were used to test activities of a selection of many compounds. Those activities are summarized in Tables 1-3, showing variation between systems and species. Activities measured in the MP mo and HM mo models have shown the best correlation with results obtained in hamster and mouse models.

T. cruzi [2] = experiment: T. cruzi epimastigote (EPI) in-vitro screen; format: cell-based
T. cruzi [3] = experiment: T. cruzi trypomastigote (TRY) in-vitro screen; format: cell-based
T. cruzi [4] = experiment: T. cruzi intracellular amastigote (AM) in-vitro screen; format: cell-based
B lymphocytes = experiment: Lymphocyte blastogenesis assay, B lymphocytes (PWM); format: cell-based, human
Description: (§2) T and B lymphocytes from normal human donors were incubated for 30 minutes at various dose levels of the compounds indicated. The lymphocytes were added in triplicate wells in gentamicin and phytohemagglutinin (PHA) (a T cell mitogen), pokeweed mitogen (PWM) (a B cell mitogen) and allogeneic mononuclear cells (mixed leukocyte cultures; MLC) or media containing the above additives. The lymphocyte blastogenesis assay is described in detail below.
(§3) The data are represented as the mean of the three replicates. The results are presented in Charts la(e) (i) and la(e) (ii) (Figs. 1 and 2). […] A reduction of both T lymphocytes' abilities to proliferate was obtained when 100 u.M or greater concentrations of IPA was added to the cell cultures. Proliferative activity of T lymphocytes by 25% at the 30 u.M concentration of IPA in the experiment.
(§4) • 1. Mononuclear cells are separated from whole blood by differential centrifugation using a synthetic separation medium, or are thawed from a cryopreserved preparation. The cells are washed and resuspended in media (RPMI - 1640, L-Glutamine 2mM, Herpes Buffer 25mM, Gentamicin 50 ug/ml, Human AB Serum-heat inactivated (56°, 30°) 20%). • 2. A viable cell count is determined. • 3. Cell concentration is adjusted to 2 x 10^6 /ml in media. • 4. The cell suspension is added to wells of a 96-well flat bottom plate in 0.1 ml aliquots (2 x 10^5 cells). • 5. The selected mitogens and/or antigens (in media without serum) are added to the cells in the wells also in 0.1 ml aliquots. • 6. The cultures are incubated for 3-7 days (depending upon the mitogen or antigen) at 37° C in a humidified 5% C02 atmosphere. • 7. Six to eight hours before termination of cultures 0.05 ml (1 µCi) of ^3HTdR sp. act 6.7 Ci/mM (20 µCi/ml stock) is added to each well. • 8. At termination of cultures the cells are harvested onto strips of scintillation-grade fibreglass paper using a multiple sample harvester. • 9. Perforated disks from the fibreglass paper of the harvested cultures are placed each into scintillation vials to which is then added 5 ml of toluene based scintillation cocktail. • 10. The vials are counted in a liquid scintillation counter for one minute where the amount of incorporated ^3HTdR is determined.
(§5) net CPM = xCPM of mitogen/antigen cultures - xCPM of media cultures.

HIV-I = experiment: Experiment la(a): macrophage cells, HIV-I, p24 antigen capture radio-immunoassay; format: cell-based; settings: for TITER: control titer 100000; for wells positive for HIV-I p24, LOG VIRUS DILUTION -1 / wells positive for HIV-I p24, LOG VIRUS DILUTION -2 / wells positive for HIV-I p24, LOG VIRUS DILUTION -3 / wells positive for HIV-I p24, LOG VIRUS DILUTION -4 / wells positive for HIV-I p24, LOG VIRUS DILUTION -5 / wells positive for HIV-I p24, LOG VIRUS DILUTION -6: duplicate runs
Description: Fresh macrophage cultures were obtained by incubation of mononuclear cells obtained from a leukopak directly in the wells of a microtiter plate having 6 wells per row. After removal of non-adherent cells, each row of the adherent macrophages was infected with 10-fold serial dilutions of HIV-I, with the use of polybrene to enhance uptake of the virus. After one to two hours, the virus inoculum was removed and replaced with fresh normal growth medium. The fresh medium for each row contained a particular concentration of AZT, dideoxy cytidine (ddC), or compound la, as indicated by the left-hand column of Table la(a). The first row of wells acted as a control, and to it was added fresh medium containing none of the three drugs. Medium levels were maintained for two to four weeks to allow replication of the virus to take place, with at least one complete fluid change to remove residual virus inoculum. The contents of each well were then tested for the level of HIV p24 antigen present using a commercially available antigen capture kit employing a radio-immunoassay which can detect as little as 10'^9gm of p24 present in a sample. The above procedure was done in duplicate runs.
The results were interpreted as follows: 2/2, for example, means that both the corresponding wells of both runs were positive for HIV-I p24, while 0/2 means that neither well was positive. The titers are given in the next to last column; where 1/2 wells was positive, an intermediate value was given to the titer that is half way between the two dilutions when calculated on a logarithmic scale. 3 µM IPA was positive in both wells at a dilution of 1/10,000 and in neither well at 1/100,000. Thus, one half log interval between 10^4 and 10^5 is 10^4.5, or 30,000.

T lymphocytes = experiment: Lymphocyte blastogenesis assay, T lymphocytes (PHA); format: cell-based, human; settings: 100 - 1 µM (Figs. 11 and 12)
Description: as §2, §3, §4, §5

L donovani [5] = experiment: Leishmania mouse/hamster models, in-vivo; settings: Ld. Also: key: - no/poor activity,; + fair/moderate activity,; ++ good/excellent activity.
Excerpt: as §1

L major/L mexicana [6] = experiment: Leishmania mouse/hamster models, in-vivo; settings: Lm. Also: key: - no/poor activity,; + fair/moderate activity,; ++ good/excellent activity.
Excerpt: as §1

L donovani [7] = experiment: Amastigotes (AM) in cell lines, in-vitro; format: cell-based; settings: Ld., Amastigote; also: key: - no/poor activity,; + fair/moderate activity,; ++ good/excellent activity
Excerpt: (§6) Amastigotes of Leishmania can be cultivated in a wide range of mammalian cells, some of which may be used in in-vitro screens. These include (1) a Sticker dog sarcoma (fibroblast) cell line, (2) transformed rodent macrophage cell lines, (3) primary isolated mouse peritoneal macrophages (MP mo), and (4) human monocyte-derived macrophages (HM mo). The methods are similar for all models. Amastigote or promastigote infected cells are maintained in a medium containing the drug for 4-7 days, at 37 C for L. donovani and 33-35 C for L. major and L. mexicana. Drug activity is then assessed by counting (I) the number of infected host cells and/or (II) the number of amastigotes/100 host cells.
as §1

L major/L mexicana [8] = experiment: Amastigotes (AM) in cell lines, in-vitro; format: cell-based; settings: Lm., Amastigote; also: key: - no/poor activity,; + fair/moderate activity,; ++ good/excellent activity
Excerpt: as §6, §1

[9] = test system: T.b. brucei, T.b. gambiense and T.b. rhodesiense; experiment: African trypanosomiasis mouse model, in-vivo
Description: (§7) Primary screening for new trypanocides has made extensive use of rodent systems, in which host survival time is a simple indicator of drug activity. In-vitro screens have used a variety of trypomastigote types (see Table 3, below). […] Most early in-vitro screens employed a short test in which bloodstream trypomastigotes were isolated from an infected rodent and maintained for up to 24 h in a simple drug-containing media. Two significant modifications of this technique include maintaining isolated bloodstream trypomastigotes in drug-containing media for 3-4 hours at 37° C in micro-titre plates and their subsequent viability assessed by the uptake of radiolabelled precursors or motility and infectivity to mice.
as §1

L donovani [10] = experiment: Amastigote-promastigote (AM-PRO) transformation, in-vitro; format: cell-based; settings: Ld.
[11] = test system: T.b. brucei, T.b. gambiense and T.b. rhodesiense; experiment: Cultivated bloodstream trypomastigote (TRY) in-vitro screen; format: cell-based
Excerpt: Culture systems developed in the last decade have used mammalian cell feeder layers to support the growth of dividing populations of bloodstream trypomastigotes of T. brucei spp. Some of these systems have been used in chemotherapy studies, including; (1) bovine fibroblast culture - T. brucei models to test some standard and experimental compounds, (2) murine bone marrow culture - T.b. gambiense model to screen inosine analogues and platinum and hypolipidemic compounds, and (3) Microtus embryonic fibroblast culture (MEF) - T.b. rhodesiense model to test standard and experimental drugs. These systems give a good indication of in-vivo activity (see Table 3). They measure activity against dividing cells rather than specific macromolecular synthesis pathways and can be readily established in micro-titre plates. The MEF and bone marrow cell feeder layers can be used to grow a range of strains of T. brucei spp., offering the possibility of examining variations in drug susceptibility and resistance between strains. The presence of a feeder layer, however, limits the opportunities for the automation of these systems.
as §1

L major/L mexicana [12] = experiment: Amastigote-promastigote (AM-PRO) transformation, in-vitro; format: cell-based; settings: Lm.
L donovani [13] = experiment: Amastigotes (AM) in mouse or human macrophages (mos), in-vitro; format: cell-based; settings: Ld., Amastigote
Excerpt: as §6, §1

L major/L mexicana [14] = experiment: as above; format: cell-based; settings: Lm., Amastigote
Excerpt: as §6, §1

L donovani [15] = experiment: Leishmania promastigote (PRO) in-vitro screen; format: cell-based; settings: Ld.
Excerpt: (§8) Following initial infection, the amastigote is the only form present in the mammalian host, surviving and dividing in various macrophage populations. Differences between the promastigote and amastigote in form and habitat are not matched by known biochemical dissimilarities. However, the drug susceptibility of the cultured promastigote, used in many early chemotherapy screens, contrasts markedly with that of the amastigote (see Table 1, below), most importantly to the clinically used pentavalent antimonials - sodium stibogluconate (Pentostam) and meglumine antimoniate (Glucantime).
as §6, §1

L major/L mexicana [16] = experiment: Leishmania promastigote (PRO) in-vitro screen; format: cell-based; settings: Lm.
Excerpt: as §8, §6, §1

[17] = test system: T.b. brucei, T.b. gambiense and T.b. rhodesiense; experiment: Isolated bloodstream trypomastigote (TRY) in-vitro screen; format: cell-based
Description: as §7
In-vitro studies on isolated bloodstream trypomastigotes were also used in the rational biochemical approaches towards the chemotherapy of T. brucei infections involving inhibitors of carbohydrate catabolism salicyl hydroxamic acid plus glycerol), of polyamine synthesis (methylgyoxal bis-guanylhydrazone and - DFMO), and of surface coat glycoprotein synthesis (Tunicamycin). In these studies, activity of the compounds are shown in-vitro and in-vivo, whereas the sensitivity of isolated bloodstream trypomastigotes to toxic oxygen radicals generated by naphthoquinones was not shown by the parasites in mice. The activity of the standard anti-trypanosomals-melarsoprol, pentamidine and suramin and tested compounds according to the present invention in in-vitro systems is shown in Table 3.
as §1

Structure (SMILES): O=C(Cn1ccnc1[N+](=O)[O-])NCc1ccccc1 [Benznidazole, benznidazole, reference compound]
- activity, mouse model (T. cruzi [1]; T. cruzi strain Sonya): +
- activity, mouse model (T. cruzi [1]; T. cruzi strain Y): ++
- activity, EPI (T. cruzi [2]; T. cruzi strain MR): ++(Y,MR, Sonya)
- activity, EPI (T. cruzi [2]; T. cruzi strain Sonya): ++(Y,MR, Sonya)
- activity, EPI (T. cruzi [2]; T. cruzi strain Y): ++(Y,MR, Sonya)
- activity, TRY (T. cruzi [3]; T. cruzi strain Sonya): ++(Y,Sonya)
- activity, TRY (T. cruzi [3]; T. cruzi strain Y): ++(Y,Sonya)
- activity, intracellular AM (T. cruzi [4]; T. cruzi strain Sonya): ++(Y,Sonya)
- activity, intracellular AM (T. cruzi [4]; T. cruzi strain Y): ++(Y,Sonya)

Structure (SMILES): Nc1ccn([C@H]2CC[C@@H](CO)O2)c(=O)n1 [ddC, dideoxycytidine, reference compound]
- reduction in B lymphocyte proliferative responses (B lymphocytes; 1 µM): 20 -35%
- reduction in B lymphocyte proliferative responses (B lymphocytes; 1000 u.M): 80 to 85%
- activity at 10 µM (HIV-I; Human immunodeficiency virus 1, Macrophage, drug 10 μM, titer relative to control, read-out: PERCENT OF CONTROL): 10%
- activity at 100 µM (HIV-I; Human immunodeficiency virus 1, Macrophage, drug 100 μM, titer relative to control, read-out: PERCENT OF CONTROL): 3%
- TITER (HIV-I; drug 10 μM): 10000
- wells positive for HIV-I p24, LOG VIRUS DILUTION -1 (HIV-I; drug 10 μM): 2/2
- wells positive for HIV-I p24, LOG VIRUS DILUTION -2 (HIV-I; drug 10 μM): 2/2
- wells positive for HIV-I p24, LOG VIRUS DILUTION -3 (HIV-I; drug 10 μM): 2/2
- wells positive for HIV-I p24, LOG VIRUS DILUTION -4 (HIV-I; drug 10 μM): 1/2
- wells positive for HIV-I p24, LOG VIRUS DILUTION -5 (HIV-I; drug 10 μM): 0/2
- wells positive for HIV-I p24, LOG VIRUS DILUTION -6 (HIV-I; drug 10 μM): 0/2
- TITER (HIV-I; drug 100 μM): 3000
- wells positive for HIV-I p24, LOG VIRUS DILUTION -1 (HIV-I; drug 100 μM): 2/2
- wells positive for HIV-I p24, LOG VIRUS DILUTION -2 (HIV-I; drug 100 μM): 2/2
- wells positive for HIV-I p24, LOG VIRUS DILUTION -3 (HIV-I; drug 100 μM): 2/2
- wells positive for HIV-I p24, LOG VIRUS DILUTION -4 (HIV-I; drug 100 μM): 0/2
- wells positive for HIV-I p24, LOG VIRUS DILUTION -5 (HIV-I; drug 100 μM): 0/2
- wells positive for HIV-I p24, LOG VIRUS DILUTION -6 (HIV-I; drug 100 μM): 0/2
- reduction in T lymphocyte function (T lymphocytes): 10 - 25%

Structure (SMILES): N=C(N)c1ccc(OCCCCCOc2ccc(C(=N)N)cc2)cc1 [Pentamidine, pentamidine, reference compound]
- Activity, mouse/ hamster models (L donovani [5]): +
- Activity, mouse/ hamster models (L major/L mexicana [6]): -
- Activity, AM in cell lines (L donovani [7]): -
- Activity, AM in cell lines (L major/L mexicana [8]): +
- activity, mouse model [9]: + +
- Activity, AM-PRO transform-ation (L donovani [10]): + +
- activity, cultivated bloodstream TRY [11]: + +
- Activity, AM-PRO transform-ation (L major/L mexicana [12]): + +
- Activity, AM in mouse or human mos (L donovani [13]): +
- Activity, AM in mouse or human mos (L major/L mexicana [14]): + +
- Activity, PRO (L donovani [15]): + +
- Activity, PRO (L major/L mexicana [16]): + +
- activity, isolated bloodstream TRY [17]: + +

Reference: EP0462621A2, “Use of particular compounds for manufacture of pharmaceutical formulations for treatment against various parasites, mycoplasmas, other indications and other infections” (Prendergast, Patrick Thomas, priority 1990, dated 1991)
